The subject of test [1] is panel of trained sensory evaluators. The test can be described thus: Taste and spit assay, descriptive taste impression versus base samples, panel of 4 trained sensory evaluators (Examples 3 to 13). The class given is in vivo, human. Particulars: for further effect added to the composition of the invention: benzaldehyde 0.02 wppm, below its threshold. Here is the method:
All tests were conducted under controlled and standardized conditions.
(§1) The samples were prepared by a trained laboratory assistant.
35 ml of the samples were served at room temperature in clear plastic cups.
The following samples comprising a composition of the invention were tested for their ability to improve the taste of artificial sweeteners.
All samples were tested in duplicate and evaluated at least 3 different concentrations in comparison to 3 base samples (samples 1 to 3).
The panelists were asked to evaluate and to describe the taste impression of the samples 4 to 13 containing a sweetener composition comprising acesulfame potassium, sucralose and a composition of the invention, e.g. bitter aftertaste, creaminess, fullness and character of the sweeteners in each case in comparison to the base samples 1 to 3.
The results of the taste and spit assay are based in each case on a qualitative evaluation of the differences between the samples.

Test [2] has the same test system. The test can be described thus: Taste and spit assay with regard to sweetness in the aftertaste, panel of 11 trained sensory evaluators (Example 2). The class given is in vivo, human. The conditions noted are these: 11 panelists; 35 ml at 6.0-8.0 °C; after 2 minutes; qualitative comparison of three samples; FIG. 2. On the procedure:
Again the panelists are given samples.
Air was constantly exchanged.
as §1
The panel used the sweetness scale anchored by three concentrations of sucrose:
Sweetness was assessed with the 1st sip (max. 30 ml, min of 15 ml) and scored in the aftertaste (after 2 minutes).
All samples were tested in duplicate.

On to delta-undecalactone, for which, in test [1] (delta-undecalactone 0.0388 wppm in Sample 14, replacing massoia lactone, 4 panelists), the “taste impression of the lactone in the composition” value is “not being too volatile and as adding a creamy taste, and as improving the total composition”.
As to `OC[C@H]1O[C@@](CO)(O[C@H]2O[C@H](CO)[C@@H](O)[C@H](O)[C@H]2O)[C@@H](O)[C@@H]1O` [saccharose], the “sweetness in the aftertaste” value in test [2] is “less sweet in the aftertaste than acesulfame potassium and sucralose”.
With `O=Cc1ccccc1` [Benzaldehyde, benzaldehyde], the “further effect added to the composition of the invention” value was “did not add any further effect” in test [1] (in sample 12 (with naringin, syringaldehyde, massoia lactone, whiskey lactone)) and “did not add any further effect” in test [1] (in sample 13 (with naringin, 4-methoxy salicylaldehyde, lactones, amino acids; sucralose 75 wppm)).

The record behind these values is US20130136836A1, “Taste-Masking Compositions, Sweetener Compositions and Consumable Product Compositions Containing the Same” (Nutrinova Nutrition Specialties & Food Ingredients GmbH, priority 2011, published 2013).
